≈ marks a conversion by molar mass, not a printed value. Marks after values point to notes of the source that are not given here. Positions of bridges follow the written chain, without caps; N, C: chain ends. Non-standard residues stand in square brackets, D forms with d. Residues, ends and D or L forms follow the SMILES beside them. Chains are numbered I, II in the order given. *: point of attachment. X1 = CC[C@H](C)CCCCC(=O)*; Dab = NCC[C@H](N)C(=O)O
What was measured:
[1] = system: K. pneumonia 4299; test: microbe, parasite or virus in culture; format: cell-based, K. pneumoniae; conditions: for MIC: Klebsiella pneumoniae, 4299, individual peptide/antibiotics, read-out: MIC against K. pneumoniae 4299
Outline: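 Peptides two-fold diluted in Mueller-Hinton Broth (0.0976–50 μg/ml final) against 10^5–10^6 CFU/ml inoculum, 37 °C for 24 h with OD600 monitored every 30 min. MIC = lowest concentration with no visible growth; two independent duplicates.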

[2] = system: P. aeruginosa DR4877/07; format: cell-based; conditions: for Fractional inhibitory concentration of peptide/PMB, combination with Chloarm / Fractional inhibitory concentration of peptide/PMB, combination with Erythro / Fractional inhibitory concentration of peptide/PMB, combination with Levo / Fractional inhibitory concentration of peptide/PMB, combination with Tobra: first number in parenthesis; for Fractional inhibitory concentration of antibiotic, Chloarm combination / Fractional inhibitory concentration of antibiotic, Erythro combination / Fractional inhibitory concentration of antibiotic, Levo combination / Fractional inhibitory concentration of antibiotic, Tobra combination: second number in parenthesis; for FICI of B2088-antibiotic combination: lowest FICI reported, two independent duplicates; for Fold decrease in the MIC of antibiotics at sub-lethal/sub-inhibitory concentrations of B2088: multidrug resistant P. aeruginosa 4877
Outline: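 Checkerboard combinations of peptide and antibiotic, each 2-fold diluted up to 1× MIC in MHB, were tested against ~10^6 CFU/ml final inoculum. Plates were incubated 24 h at 37 °C, with growth read at OD600. FICI was the sum of the combination-to-alone MIC ratios for each agent, and the lowest FICI from duplicate experiments was reported.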

[3] = system: E. coli D21 and LPS outer core polysaccharide truncated mutant strains; test: MIC ratio against LPS-truncated E. coli mutants; format: cell-based; conditions: oligosaccharide-truncated mutants vs wild type D21; increase seen against D21e9 lacking outer core polysaccharides
Text: LPS is a complex glycosylated lipid molecule comprising of a hydrophobic lipid A and core oligosaccharides. The core oligosaccharides are structurally divided into an inner core (lipid A proximal) region and an outer core O-antigen region (Fig. 4a). To ascertain if the alterations in OM polysaccharides modify the barrier penetration and antimicrobial properties of the peptides, we determined the MIC of the peptides against 4 cell-wall defective mutants of E. coli (Fig. 4a). We report the MIC ratio (i.e., MICmut/MICwt) which is the ratio of MIC of peptides/antibiotics against oligosaccharides truncated mutant strains over MIC of wild type (D21) strains. For antibiotics that access intracellular targets through porin pathways or peptides that bind to the lipid A part of the LPS, the MIC ratio is independent of LPS truncation (Fig. 4b). However, antibiotics or peptides which interact with outer or inner core polysaccharides of the LPS are expected to show changes in the MIC ratio.
All the peptide congeners were purchased from M/s. Mimotopes Pty Ltd, Australia. The peptides were used as such and the homogeneity of peptides were confirmed by HPLC. Unless otherwise stated all the chemicals and the antibiotics tested were purchased from Sigma Aldrich (Singapore) Pte Ltd. The florescent probe, BODIPY TR cadaverine (BC) was purchased from Molecular Probes/ Invitrogen (CA, USA). E. coli LPS outer core polysaccharide truncated mutant strains were obtained from CGSG, The Coli Genetic Stock Centre, Yale University, […], USA. Relevant genotype of the strains are, D21 (rfa+); D21e19 (rfa-11) is a deficient mutant in carbohydrates close to the O-antigen part; D21e7 (rfa-1) is deficient in galactose as well as O-antigen; D21f1 (rfa-1, rfa21) lacks phosphate groups in the LPS has glucose and heptose intact; D21f2 (rfa-1, rfa-31) is deficient in heptose of the inner core[57][58].
MIC of each peptide was determined using the microdilution method in a 96 well microtitre plates (SPL Life Sciences Co., Ltd, Korea). Two-fold serial dilutions of each peptide in Mueller-Hinton Broth (MHB) was prepared from a 1 mg/ml stock solution of the peptide in the same broth, to obtain a final concentration in the range of 0.0976–50 μg/ml in each well. Bacterial suspensions (P. aeruginosa ATCC 27853, P. aeruginosa 4877, P. aeruginosa 23155, K. pneumoniae ATCC 10031 and K. pneumoniae 4299) were prepared by suspending the overnight cultured bacteria in saline and adjusting the inoculum to ~10^8 colony forming units (CFU) per ml. A further 150-fold dilution was then prepared in MHB to achieve a final cell density of 10^5–10^6 CFU/ml. In each well, 100 μl of inoculum was mixed with the equal volume of peptides at their 2× concentration. Positive and negative controls contained 200 μl of inoculum (without any peptide) and broth alone (no peptide/inoculum) respectively. Another negative control in which MHB containing 200 μl of peptide alone in its highest concentration tested (50 μg/ml) was also included to ensure that the optical density measured in the test wells was not due to turbidity of the peptides in solution. The 96 well polystyrene plates were then incubated at 37 °C for 24 h and the optical density at 600 nm (OD600) was measured every 30 min continuously using a TECAN microplate reader (TECAN Infinite 200, Austria). All the experiments were performed in two independent duplicates and the MIC was determined as the lowest peptide concentration in which no visible growth was observed.

[4] = system: A549 cells infected with P. aeruginosa ATCC 9027; test: Intracellular bacterial load in infected A549 cells; format: cell-based; conditions: 24 h; for Intracellular bacterial load: antibiotic alone, gatifloxacin at 2 μg/ml
Method: Human lung A549 epithelial cells (ATCC CCL185) were seeded at a density of 10^5 cells/well in a 24 well plate. Next day cells were infected with P. aeroginosa 9027 strains at the multiplicity of infection of 5 for 2 h. Cells were then washed thrice with PBS followed by DMEM to remove the extracellular bacteria. The washed cells were subsequently treated with 200 μg/ml gentamicin to kill any extracellular bacteria. After 1 h cells were washed with PBS again to remove the dead bacteria and the cells were either mixed with antibiotics (Tobramycin or Gatifloxacin) alone or in combination with B2088. After 24 h, the cells were lysed with 0.1% Triton-X100 and the lysates were serially diluted and plated on to a tryptic soy agar (TSA) plates for colony counting.

[5] = system: K. pneumoniae 07955; test: microbe, parasite or virus in culture; format: cell-based; conditions: for MIC: Klebsiella pneumoniae, 07955, individual peptide/antibiotics, read-out: MIC against K. pneumoniae 07955
[6] = system: K. pneumoniae 31158; test: microbe, parasite or virus in culture; format: cell-based; conditions: for MIC: Klebsiella pneumoniae, 31158, individual peptide/antibiotics, read-out: MIC against K. pneumoniae 31158
[7] = MIC of B2088 6.25 μg/ml, MHB, ~10^6 CFU/ml, 37 °C, 24 h

Compound	Fractional inhibitory concentration of peptide/PMB, combination with Chloarm [2]	Fractional inhibitory concentration of peptide/PMB, combination with Erythro [2]	Fractional inhibitory concentration of peptide/PMB, combination with Levo [2]	Fractional inhibitory concentration of peptide/PMB, combination with Tobra [2]	Fractional inhibitory concentration of antibiotic, Chloarm combination [2]	Fractional inhibitory concentration of antibiotic, Erythro combination [2]	Fractional inhibitory concentration of antibiotic, Levo combination [2]	Fractional inhibitory concentration of antibiotic, Tobra combination [2]	MIC ratio (MICmut/MICwt) [3]	MIC [1] [µg/mL]	Intracellular bacterial load [4]	MIC [5] [µg/mL]	FICI of polymyxin B-antibiotic combination [2]	MIC of antibiotics in the presence of ¼× sub-MIC of B2088 [2, 7] [µg/mL]	MIC of antibiotics in the presence of ½× sub-MIC of B2088 [2, 7] [µg/mL]	FICI of B2088-antibiotic combination [2]	Fold decrease in the MIC of antibiotics at sub-lethal/sub-inhibitory concentrations of B2088 [2]	MIC [6] [µg/mL]	further results
CC[C@H](C)CCCCC(=O)N[C@@H](CCN)C(=O)N[C@H](C(=O)N[C@@H](CCN)C(=O)N[C@H]1CCNC(=O)[C@H]([C@@H](C)O)NC(=O)[C@H](CCN)NC(=O)[C@H](CCN)NC(=O)[C@H](CC(C)C)NC(=O)[C@@H](Cc2ccccc2)NC(=O)[C@H](CCN)NC1=O)[C@@H](C)O [Polymyxin B, polymyxin B, reference compound] (X1-[Dab]T[Dab][Dab][Dab][dF]L[Dab][Dab]T; lactam 4-C (inferred); N-terminus assumed)	0.125	0.25	0.5	(0.5,0.5)	0.5	0.5	0.25	(0.5,0.5)	did not show any change	–	–	–	–	–	–	–	–	–	Minimum Inhibitory Concentration against K. pneumonia 4299 ([1]; MHB, 10^5–10^6 CFU/ml, 37 °C, 24 h, two independent duplicates): 1.13 µM; Fractional Inhibitory Concentration Index with Chloarm ([2]; peptide + chloramphenicol): 0.63; Fractional Inhibitory Concentration Index with Erythro ([2]; peptide + erythromycin): 0.75; Fractional Inhibitory Concentration Index with Levo ([2]; peptide + levofloxacin): 0.75; Fractional Inhibitory Concentration Index with Tobra ([2]; peptide + tobramycin): 1.0
NC[C@H]1O[C@H](O[C@H]2[C@H](O)[C@@H](O[C@H]3O[C@H](CO)[C@@H](O)[C@H](N)[C@H]3O)[C@H](N)C[C@@H]2N)[C@H](N)C[C@@H]1O [Tobramycin]	–	–	–	–	–	–	–	–	marked increase	0.024 (≈ 0.0513 µM)	decreased the intracellular bacterial load	25 (≈ 53.5 µM)	1.0	200	200	0.5	4 fold	0.012 (≈ 0.0257 µM)	–
CC(C)[C@H](NC(=O)[C@H](CCCCN)NC(=O)[C@H](CCCNC(=N)N)NC(=O)CNC(=O)[C@@H](N)CCCNC(=N)N)C(=O)N[C@H](C(=O)N[C@@H](CCCNC(=N)N)C(=O)N[C@@H](CCCNC(=N)N)C(=O)NCCCC[C@H](NC(=O)[C@H](CCCNC(=N)N)NC(=O)[C@H](CCCNC(=N)N)NC(=O)[C@@H](NC(=O)[C@@H](NC(=O)[C@H](CCCCN)NC(=O)[C@H](CCCNC(=N)N)NC(=O)CNC(=O)[C@@H](N)CCCNC(=N)N)C(C)C)C(C)C)C(=O)N[C@@H](CCCCN)C(=O)O)C(C)C [B2088] (I: H-RGRKVVRRKK-OH / II: H-RGRKVVRR; amide I:9-II:C; N-terminus and C-terminus assumed)	(0.25,0.25)	(0.5,0.5) ^‡	(0.5,0.5)	(0.25,0.25)	(0.25,0.25)	(0.5,0.5) ^‡	(0.5,0.5)	(0.25,0.25)	no apparent change	–	–	–	–	–	–	–	2-8 fold	–	MIC against K. pneumoniae 4299 ([1]; 24 h): 12.5 µg/mL (≈ 5.46 µM); Minimum Inhibitory Concentration against K. pneumonia 4299 ([1]; 24 h): 2.7 µM; Intracellular bacterial burden ([4]; B2088 alone at 200 μg/ml): did not decrease the intracellular bacterial burden; MIC against K. pneumoniae 07955 ([5]; 07955, 24 h): 6.25 µg/mL (≈ 2.73 µM); MIC against K. pneumoniae 31158 ([6]; 31158, 24 h): 12.5 µg/mL (≈ 5.46 µM)
COc1c(N2CCNC(C)C2)c(F)cc2c(=O)c(C(=O)O)cn(C3CC3)c12 (stereo not drawn) [Gatifloxacin]	–	–	–	–	–	–	–	–	–	1.56 (≈ 4.16 µM)	marked decrease in the intracellular bacterial burden	1.56 (≈ 4.16 µM)	0.63	15.6	7.8	0.63	–	1.56 (≈ 4.16 µM)	MIC of antibiotics in the presence of ⅛× sub-MIC of B2088 [2, 7]: 15.6 µg/mL
